What is called IC50 is the concentration that inhibits the measured activity by half. What is called Cmax is the highest concentration seen after dosing. In general, inhibition in vivo refers to the percentage by which the read-out fell short of the control. By bioavailability is commonly meant the share of a dose that reaches the circulation, judged against a reference dose that is usually intravenous. A higher bioavailability goes with good availability. In general, Tmax refers to the time from dosing to the highest level. The term ED50 denotes the dose at which the effect has come halfway, by size or by number of responders.

This is an account of results in ChEMBL document CHEMBL4725449, “Brain Penetrable Inhibitors of Ceramide Galactosyltransferase for the Treatment of Lysosomal Storage Disorders” (ACS Med Chem Lett, 2020).

Series [1] concerns the target T1, 2-hydroxyacylsphingosine 1-beta-galactosyltransferase (Mus musculus, UniProt Q64676).
T1 sequence (Q64676 whole entry): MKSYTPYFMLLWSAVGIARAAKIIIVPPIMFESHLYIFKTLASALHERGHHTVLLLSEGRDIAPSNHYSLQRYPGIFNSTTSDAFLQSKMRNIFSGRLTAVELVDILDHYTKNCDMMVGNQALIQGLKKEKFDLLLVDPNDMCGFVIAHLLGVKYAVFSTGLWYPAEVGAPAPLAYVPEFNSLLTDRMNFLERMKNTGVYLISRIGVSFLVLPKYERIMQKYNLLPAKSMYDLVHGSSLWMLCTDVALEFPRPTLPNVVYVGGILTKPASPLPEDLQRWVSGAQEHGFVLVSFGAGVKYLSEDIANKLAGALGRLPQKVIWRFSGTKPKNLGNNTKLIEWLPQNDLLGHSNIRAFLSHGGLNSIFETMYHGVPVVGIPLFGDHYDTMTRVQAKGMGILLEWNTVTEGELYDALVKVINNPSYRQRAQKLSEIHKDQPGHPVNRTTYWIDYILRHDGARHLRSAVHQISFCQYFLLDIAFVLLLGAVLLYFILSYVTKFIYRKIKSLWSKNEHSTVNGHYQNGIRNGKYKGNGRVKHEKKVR
In words: Inhibition of mouse UGT8 assessed as redcution in SFT accumulation.

Series [2] can be described thus: Cmax in Sprague-Dawley rat at 3 mg/kg, po. The conditions noted are these: in vivo. More on the design: route oral, dose 3 mg/kg. The class given is ADME, organism-based.
Series [3] has as its target T2, UDP-glucuronosyltransferase 1A1 (Homo sapiens, UniProt P22309).
T2 sequence (P22309 whole entry): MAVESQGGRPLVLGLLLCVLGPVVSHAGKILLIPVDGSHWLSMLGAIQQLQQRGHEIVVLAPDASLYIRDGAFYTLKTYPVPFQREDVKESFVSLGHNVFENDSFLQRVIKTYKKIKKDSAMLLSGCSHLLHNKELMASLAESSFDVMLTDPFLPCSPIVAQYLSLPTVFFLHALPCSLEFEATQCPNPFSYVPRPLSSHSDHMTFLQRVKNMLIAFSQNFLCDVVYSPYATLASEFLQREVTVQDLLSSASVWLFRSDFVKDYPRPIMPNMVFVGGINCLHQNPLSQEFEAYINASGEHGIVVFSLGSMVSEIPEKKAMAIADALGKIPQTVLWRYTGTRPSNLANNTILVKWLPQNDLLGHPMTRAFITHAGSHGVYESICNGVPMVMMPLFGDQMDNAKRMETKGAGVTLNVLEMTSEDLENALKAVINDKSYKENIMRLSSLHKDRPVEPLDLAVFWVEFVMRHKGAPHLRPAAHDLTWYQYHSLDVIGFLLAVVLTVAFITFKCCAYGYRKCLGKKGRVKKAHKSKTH
Kind of series: Inhibition of UGT1A1 (unknown origin). In kind it is ADME.

A short description of series [4]: In vivo inhibition of GalCer de novo synthesis in PN14 to PN21 days C57BL/6 mouse brain assessed as reduction in [13C] galactose incorporation into GalCer at 3 mg/kg, po bid for 2 days and single dose at day 3 treated 1 hr prior to intraperitoneal injection of [13C] galactose measured after 5 hrs of last dose relative to control. In kind it is functional. The conditions noted are these: C57BL/6, 72 h, time 3 day.

The target of series [5] is T3, 2-hydroxyacylsphingosine 1-beta-galactosyltransferase (Homo sapiens, UniProt Q16880).
T3 sequence (Q16880 whole entry): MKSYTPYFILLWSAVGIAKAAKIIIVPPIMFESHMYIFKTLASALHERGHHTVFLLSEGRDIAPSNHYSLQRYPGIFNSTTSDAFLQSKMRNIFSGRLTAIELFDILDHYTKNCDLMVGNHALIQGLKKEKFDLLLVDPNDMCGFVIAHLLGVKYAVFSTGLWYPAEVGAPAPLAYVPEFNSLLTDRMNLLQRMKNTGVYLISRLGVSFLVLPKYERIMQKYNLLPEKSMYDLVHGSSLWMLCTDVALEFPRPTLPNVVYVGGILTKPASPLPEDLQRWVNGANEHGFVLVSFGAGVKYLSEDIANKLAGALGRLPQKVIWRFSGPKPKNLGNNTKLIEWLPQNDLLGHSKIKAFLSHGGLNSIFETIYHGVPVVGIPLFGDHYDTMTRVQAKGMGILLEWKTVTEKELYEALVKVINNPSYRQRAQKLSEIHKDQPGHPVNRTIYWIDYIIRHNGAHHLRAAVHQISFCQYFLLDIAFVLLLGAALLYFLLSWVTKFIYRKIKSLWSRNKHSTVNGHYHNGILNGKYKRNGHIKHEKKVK
In words: Inhibition of UGT8 in human OE19 cells assessed as redcution in SFT accumulation measured after 72 hrs by LC-MS/MS analysis. In kind it is cell-based.

Series [6] can be described thus: Oral bioavailability in Beagle dog at 3 mg/kg. In kind it is ADME, organism-based, Canis lupus familiaris. Particulars: in vivo.
Series [7] can be described thus: Cmax in C57BL/6 mouse at 3 mg/kg, po. In kind it is ADME, organism-based. Further details: route oral, dose 3 mg/kg. The conditions noted are these: in vivo.
Series [8] in a line: Ratio of drug concentration in brain to plasma in C57BL/6 mouse measured at 5 mins. The class given is ADME, organism-based. The conditions noted are these: read-out: BPR.
Series [9] can be described thus: Tmax in Sprague-Dawley rat at 3 mg/kg, po. In kind it is ADME, organism-based. Particulars: in vivo.
A short description of series [10]: Drug uptake in C57BL/6 mouse brain at 3 mg/kg, iv measured at 1 hr. In kind it is ADME, organism-based. The conditions noted are these: read-out: Drug uptake.
A short description of series [11]: In vivo inhibition of SFT de novo synthesis in PN14 to PN21 days C57BL/6 mouse brain assessed as reduction in [13C] galactose incorporation into SFT at 3 mg/kg, po bid for 2 days and single dose at day 3 treated 1 hr prior to intraperitoneal injection of [13C] galactose measured after 5 hrs of last dose relative to control. Particulars: C57BL/6, 72 h, time 3 day. In kind it is functional.

Series [12] is described as follows: Protein binding in C57BL/6 mouse plasma. The class given is ADME, cell-free. The conditions noted are these: read-out: PPB.
Series [13] in a line: In vivo inhibition of SFT de novo synthesis in PN14 to PN21 days C57BL/6 mouse brain assessed as reduction in [13C] galactose incorporation into SFT at 30 mg/kg, po bid for 2 days and single dose at day 3 treated 1 hr prior to intraperitoneal injection of [13C] galactose measured after 5 hrs of last dose relative to control. In kind it is functional. Particulars: C57BL/6, 72 h, time 3 day.

A short description of series [14]: Volume of distribution at steady state in Sprague-Dawley rat at 1 mg/kg, iv. The class given is ADME, organism-based. Particulars: in vivo, read-out: Vdss.
Series [15] in a line: In vivo inhibition of GalCer de novo synthesis in adult C57BL/6 mouse kidney assessed as reduction in [13C] galactose incorporation into GalCer at 3 mg/kg, po via gavage treated with compound for 1 hr prior to intraperitoneal injection of [13C] galactose measured after 5 hrs of compound administration relative to control. The class given is functional.
A short description of series [16]: Tmax in Beagle dog at 3 mg/kg, po. In kind it is ADME, organism-based, Canis lupus familiaris. Particulars: in vivo.
Series [17] is described as follows: Drug uptake in C57BL/6 mouse brain at 3 mg/kg, iv measured at 5 mins. In kind it is ADME, organism-based. The conditions noted are these: read-out: Drug uptake.
Series [18] can be described thus: In vivo inhibition of SFT de novo synthesis in po dosed PN14 to PN21 days C57BL/6 mouse brain assessed as reduction in [13C] galactose incorporation into SFT administered twice for 2 days and single dose at day 3 treated 1 hr prior to intraperitoneal injection of [13C] galactose measured after 5 hrs of last dose. In kind it is functional. Particulars: C57BL/6, 72 h, time 3 day.

For the compound `CNC(=O)c1csc2c(C(F)(F)F)cc(N3CCC(OC(=O)N[C@@H](C)COC(F)(F)F)CC3)nc12`, the values for the IC50 in [1], in [3] and in series [5] were 0.3 nM, above 10000 nM and 0.2 nM, respectively. The Cmax in series [2] worked out at 405 ng/mL; in series [7], 306 ng/mL. For the same compound, the inhibition in vivo at 3 mg/kg in series [4] was 90%; in series [11] it was 92%; in [15], 72%. The compound further gave a bioavailability in series [6] of 52%. The Kp at 5 min in series [8] came out at 0.69. The Tmax in series [9] amounted to 0.83 h; in series [16], 1.33 h. In addition, the concentration at 1 h in series [10] was found to be 148 ng/mL. The fraction unbound in [12] was below 0.01. The inhibition in vivo at 30 mg/kg in series [13] is 98%. The Vd in series [14] was 1.52 L/kg. Besides, the concentration at 5 min in series [17] is 2050 ng/mL. Moreover, the ED50 in series [18] was below 3 mg/kg.
